Like-named read-outs stand apart in the source and are kept apart here.
Legend:
Mycoplasma synoviae = assay: conventional broth-dilution microtiter test, MIC; type: cell-based
Description: (§1) The MIC's in Table III were determined by standard agar-dilutionassays. The MIC's in Table IV were obtained using a conventional broth-dilution microtiter test.

Streptococcus sp. 80 = assay: conventional broth-dilution microtiter test, MIC; type: cell-based
Description: as §1

Mycoplasma hyorhinis = assay: conventional broth-dilution microtiter test, MIC; type: cell-based
Description: as §1

[1] = test system: Pasteurella multocida 60A; assay: conventional broth-dilution microtiter test, MIC; type: cell-based; conditions: avian isolate
Description: as §1

Mycoplasma gallisepticum = assay: conventional broth-dilution microtiter test, MIC; type: cell-based
Description: as §1

[2] = test system: Pasteurella multocida 17E; assay: conventional broth-dilution microtiter test, MIC; type: cell-based; conditions: bovine isolate
Description: as §1

Staphylococcus aureus = assay: conventional broth-dilution microtiter test, MIC; type: cell-based
Description: as §1

[3] = test system: Haemophilus influenzae Holt; assay: standard agar-dilution assay, MIC; type: cell-based; conditions: ampicillin sensitive strain
Description: as §1
^d Ampicillinsensitive strain

[4] = test system: Staphylococcus aureus V41; assay: standard agar-dilution assay, MIC; type: cell-based; conditions: Staphylococcus aureus V41, penicillin resistant strain
Description: as §1
^b Penicillinresistant strain

[5] = test system: Staphylococcus aureus X400; assay: standard agar-dilution assay, MIC; type: cell-based; conditions: Staphylococcus aureus X400, methicillin resistant strain
Description: as §1
^c Methicillinresistant-strain

[6] = test system: Haemophilus influenzae R252; assay: standard agar-dilution assay, MIC; type: cell-based; conditions: Haemophilus influenzae R252, ampicillin resistant strain
Description: as §1
^e Ampicillinresistant strain

[7] = test system: Streptococcus Group D X66; assay: standard agar-dilution assay, MIC; type: cell-based
Description: as §1

[8] = test system: Streptococcus pyogenes C203; assay: standard agar-dilution assay, MIC; type: cell-based
Description: as §1

[9] = test system: Staphylococcus epidermidis EPI2; assay: standard agar-dilution assay, MIC; type: cell-based
Description: as §1

[10] = test system: Streptococcus pneumoniae Park I; assay: standard agar-dilution assay, MIC; type: cell-based
Description: as §1

Streptococcus Group 9960 = assay: standard agar-dilution assay, MIC; type: cell-based
Description: as §1

[11] = test system: Staphylococcus aureus S13E; assay: standard agar-dilution assay, MIC; type: cell-based
Description: as §1

[12] = test system: Staphylococcus aureus X1.1; assay: standard agar-dilution assay, MIC; type: cell-based
Description: as §1

[13] = test system: Staphylococcus epidermidis EPI1; assay: standard agar-dilution assay, MIC; type: cell-based
Description: as §1

[14] = test system: Streptococcus pyogenes C203; assay: experimental bacterial infection in mice, ED50; type: in vivo; conditions: doses given 1 and 5 hours postinfection, read-out: ED50 (effective dose to protect 50% of the test animals)
Description: The ester derivatives of this invention have shown in vivo antimicrobial activity against experimental bacterial infections caused by gram-positivebacteria. When two doses of test compound were administered to mice with experimental infections, the activity observed was measured as an ED50 value [effective dose in mg/kg to protect 50% of the test animals: see Warren Wick, et al., J. Bacteriol. 81, 233-235 (1961)].
^a mg/kg × 2; doses given 1 and 5 hours postinfection

Structure (SMILES) | MIC (minimal inhibitory concentration) (Mycoplasma synoviae) | MIC (minimal inhibitory concentration) (Streptococcus sp. 80) | MIC (minimal inhibitory concentration) (Mycoplasma hyorhinis) | MIC (minimal inhibitory concentration) [1] | MIC (minimal inhibitory concentration) (Mycoplasma gallisepticum) | MIC (minimal inhibitory concentration) [2] | MIC (minimal inhibitory concentration) (Staphylococcus aureus) | MIC (minimal inhibitory concentration) [3] | MIC (minimal inhibitory concentration) [4] | MIC (minimal inhibitory concentration) [5] | MIC (minimal inhibitory concentration) [6] | MIC (minimal inhibitory concentration) [7] | MIC (minimal inhibitory concentration) [8] | MIC (minimal inhibitory concentration) [9] | MIC (minimal inhibitory concentration) [10] | MIC (minimal inhibitory concentration) (Streptococcus Group 9960) | MIC (minimal inhibitory concentration) [11] | MIC (minimal inhibitory concentration) [12] | MIC (minimal inhibitory concentration) [13] | also measured
CCC1OC(=O)CC(O)C(C)C(OC2OC(C)C(OC3CC(C)(O)C(OC(=O)Cc4ccccc4)C(C)O3)C(N(C)C)C2O)C(CC=O)CC(C)C(=O)C=CC(C)=CC1COC(=O)Cc1ccccc1 (stereo not shown) [Compound 6, 23,4"-Di-O-Phenylacetyl-DMT] | 0.39 | 0.39 | 0.195 | > 50 | ≤ 0.048 | 50 | 1.56 | 64 | 1 | 1 | 64 | 0.5 | 0.25 | 1 | 0.125 | 0.5 | 1 | 1 | 1 | –
CCC1OC(=O)CC(O)C(C)C(OC2OC(C)C(OC3CC(C)(O)C(OC(=O)C(Cl)(Cl)Cl)C(C)O3)C(N(C)C)C2OC(C)=O)C(CC=O)CC(C)C(=O)C=CC(C)=CC1COC(=O)C(Cl)(Cl)Cl (stereo not shown) [Compound 11, 2'-O-acetyl-23,4"-di-O-trichloroacetyl-DMT] | – | – | – | – | – | – | – | 32 | 8 | 8 | 16 | 4 | 2 | 4 | 0.25 | 4 | 4 | 4 | 2 | –
CCC1OC(=O)CC(OC(=O)C(Cl)(Cl)Cl)C(C)C(OC2OC(C)C(OC3CC(C)(O)C(O)C(C)O3)C(N(C)C)C2OC(C)=O)C(CC=O)CC(C)C(=O)C=CC(C)=CC1COC(=O)C(Cl)(Cl)Cl (stereo not shown) [Compound 12, 2'-O-acetyl-3,23-di-O-trichloroacetyl-DMT] | – | – | – | – | – | – | – | 32 | 2 | 2 | 16 | 2 | 0.5 | 2 | 0.125 | 2 | 1 | 1 | 1 | –
CCC1OC(=O)CC(OC(=O)C(Cl)(Cl)Cl)C(C)C(OC2OC(C)C(OC3CC(C)(O)C(OC(=O)C(Cl)(Cl)Cl)C(C)O3)C(N(C)C)C2OC(C)=O)C(CC=O)CC(C)C(=O)C=CC(C)=CC1COC(=O)C(Cl)(Cl)Cl (stereo not shown) [Compound 13, 2'-O-acetyl-3,23,4"-tri-O-trichloroacetyl-DMT] | – | – | – | – | – | – | – | 128 | 16 | 16 | 128 | 16 | 8 | 16 | 2 | 16 | 8 | 8 | 8 | –
CCC(=O)OC1C(C)OC(OC2C(C)OC(OC3C(CC=O)CC(C)C(=O)C=CC(C)=CC(COC(=O)C(Cl)(Cl)Cl)C(CC)OC(=O)CC(O)C3C)C(OC(C)=O)C2N(C)C)CC1(C)O (stereo not shown) [Compound 14, 2'-O-Acetyl-4"-O-Propionyl-23-O-Trichloroacetyl-DMT] | 0.195 | 1.56 | 6.25 | 25 | 0.39 | 12.5 | 1.56 | 8 | 1 | 2 | 8 | 2 | 0.5 | 2 | 0.125 | 1 | 1 | 0.5 | 0.5 | –
CCC(=O)OC1C(C)OC(OC2C(C)OC(OC3C(CC=O)CC(C)C(=O)C=CC(C)=CC(CO)C(CC)OC(=O)CC(O)C3C)C(O)C2N(C)C)CC1(C)O (stereo not shown) [Compound 16, 4"-O-Propionyl-DMT] | – | – | – | – | – | – | – | 4 | 0.5 | 1 | 2 | 0.5 | 0.125 | 1 | 0.06 | 0.5 | 0.5 | 0.5 | 0.5 | –
CCC1OC(=O)CC(O)C(C)C(OC2OC(C)C(OC3CC(C)(O)C(OC(=O)CC(C)C)C(C)O3)C(N(C)C)C2OC(C)=O)C(CC=O)CC(C)C(=O)C=CC(C)=CC1C (stereo not shown) [Compound 18, 2'-O-Acetyl-4"-O-Isovaleryl-DMOT] | – | 0.39 | 0.78 | > 50 | 0.39 | 12.5 | 0.78 | 32 | 1 | 1 | 32 | 1 | 0.5 | 2 | 0.06 | 1 | 1 | 1 | 1 | –
CCC(=O)OC1C(C)OC(OC2C(C)OC(OC3C(CC=O)CC(C)C(=O)C=CC(C)=CC(C)C(CC)OC(=O)CC(O)C3C)C(OC(C)=O)C2N(C)C)CC1(C)O (stereo not shown) [Compound 22, 2'-O-Acetyl-4"-O-Propionyl-DMOT] | 0.78 | 1.56 | 1.56 | 25 | 0.195 | 25 | 3.12 | – | 0.5 | 0.5 | – | 0.5 | 0.25 | 1 | 0.125 | 0.5 | 0.5 | 0.25 | 0.5 | ED50 ([14]; C203, mice, oral): 91 mg/kg; ED50 ([14]; C203, sc, mice, subcutaneous): > 30 mg/kg
CCC(=O)OC1CC(=O)OC(CC)C(C)C=C(C)C=CC(=O)C(C)CC(CC=O)C(OC2OC(C)C(OC3CC(C)(O)C(OC(=O)CC)C(C)O3)C(N(C)C)C2OC(C)=O)C1C (stereo not shown) [Compound 23, 2'-O-Acetyl-3,4"-Di-O-Propionyl-DMOT] | 3.12 | 1.56 | 1.56 | > 50 | 0.39 | 50 | 1.56 | – | 1 | 1 | – | 1 | 0.5 | 1 | 0.06 | 1 | 0.5 | 0.5 | 0.5 | ED50 ([14]; C203, mice, oral): > 100 mg/kg; ED50 ([14]; C203, sc, mice, subcutaneous): > 30 mg/kg

Reference: US4436733A, “4"- And 3-ester derivatives of DMT and DMOT” (Eli Lilly and Company, priority 1982, dated 1984)
